# Data as given in paper PMC8449061, “A structural model for (GlcNAc)2 translocation via a periplasmic chitooligosaccharide-binding protein from marine Vibrio bacteria” (The Journal of Biological Chemistry, 2021).
# Legend:
# Type in all cases: binding
# VhCBP W363A = assay: ITC titration of VhCBP mutant W363A with (GlcNAc)2
# Excerpt: (§1) These proteins were used for ITC binding experiments with (GlcNAc)2 as the ligand. […] Degrees of conservation among five members of cluster/subcluster C-IV SBPs (VhCBP, VcCBP, TmCeBP, TmMnBP1, and TmMnBP2) are also represented by coloring dark red (high degree of conservation) to pale red (moderate degree of conservation) to white (low degree of conservation).
# (§2) Figure 5 ITC profiles obtained from (GlcNAc)2titration using VhCBP WT and mutants. Thermograms (upper) and binding isotherms with theoretical fits (lower) of the individual titrations are presented. Titration experiments were conducted in 20 mM Tris HCl, pH 8.0, at 25 °C. ITC, isothermal titration calorimetry. VhCBP, CBP from Vibrio campbellii type strain ATCC BAA-1116.
# (§3) ITC experiments were conducted by titrating 200 μM (GlcNAc)n (n = 2, 3, or 4) solutions from the injection syringe into 20 μM WT VhCBP in the sample cell. The titrations were performed in 20 mM Tris-HCl buffer, pH 8.0, by a PEAQ-ITC (Malvern Instruments) using the operational software installed in the equipment. Briefly, the temperature in the sample cell was maintained at 25 °C, and the difference in temperature (ΔT) between the reference cell and the sample cell was compensated by heaters fitted to the cells. The compensation energy utilized per second was plotted against experimental time. Peak integrations of the individual troughs were replotted against the molar ratio of the ligand to protein. The binding isotherm thus obtained was used for data-fitting analysis using the ‘One-Set of Sites’ model defined in MicroCal PEAQ-ITC Analysis Software to obtain Kd, ΔG°, ΔH°, and ΔS° terms. […] Titrations of (GlcNAc)2 to the individual VhCBP mutants were performed as described for the WT protein.
# (§4) Table S2: ITC experimental conditions for titration of VhCBP and its mutants with (GlcNAc) 2-4 .
# (§5) Table S3: Conditions for co-crystallization of VhCBP mutants with (GlcNAc) 2.
# VhCBP F411A = assay: ITC titration of VhCBP mutant F411A with (GlcNAc)2
# Excerpt: as §1, §2, §3, §4, §5
# VhCBP W513A = assay: ITC titration of VhCBP mutant W513A with (GlcNAc)2
# Excerpt: as §1, §2, §3, §4, §5
# VhCBP WT = assay: ITC titration of WT VhCBP with (GlcNAc)2–4; conditions: for ΔG° / ΔH° / −TΔS° / Kd: 20 mM Tris-HCl pH 8.0, 25 °C; for ΔG° / ΔH° / −TΔS°: mean ± SD; for Kd: n fixed at 1, mean ± SD of three experiments; for fold lower affinity than (GlcNAc)2: from Kd values
# Procedure: We previously reported ITC data for (GlcNAc)2–4 binding to VhCBP in 20 mM potassium phosphate, pH 8.0, at 4 °C ([13]). Here, we re-evaluated the ITC data by conducting binding experiments in Tris HCl, pH 8.0, at 25 °C using (GlcNAc)n (n = 2–4) as the ligands. The binding interactions for individual ligands were determined assuming a 1:1 stoichiometry.
# as §2, §3
# Table S2: ITC experimental conditions for titration of VhCBP and its mutants with (GlcNAc) 2-4 . […]
# VhCBP N409A = assay: ITC titration of VhCBP mutant N409A with (GlcNAc)2
# Excerpt: as §1, §2, §3, §4, §5
# VhCBP S221A = assay: ITC titration of VhCBP mutant S221A with (GlcNAc)2
# Excerpt: as §1, §2, §3, §4, §5
# VhCBP N204A = assay: ITC titration of VhCBP mutant N204A with (GlcNAc)2
# Excerpt: as §1, §2, §3, §4, §5
# VhCBP E10A = assay: ITC titration of VhCBP mutant E10A with (GlcNAc)2
# Excerpt: as §1, §2, §3, §4, §5
# VhCBP F437A = assay: ITC titration of VhCBP mutant F437A with (GlcNAc)2
# Excerpt: as §1, §2, §3, §4, §5
# VhCBP W363A/W513A = assay: ITC titration of VhCBP double mutant W363A/W513A with (GlcNAc)2; conditions: 20 mM Tris HCl pH 8.0, 25 °C
# Excerpt: To evaluate the contributions of the amino acid residues in (GlcNAc)2 binding, we carried out site-directed mutagenesis to substitute the designated residues and successfully produced nine single mutants, E10A, N204A, S221A, W363A, D365A, N409A, F411A, F437A, and W513A, and one double mutant, W363A/W513A. All proteins were purified to homogeneity by Ni-NTA affinity chromatography, followed by gel filtration, and their purities were checked by SDS-PAGE analysis (Fig. S2). These proteins were used for ITC binding experiments with (GlcNAc)2 as the ligand. […] The effects on ΔG° in the other mutants (E10A, N204A, S221A, N409A, and F411A) were moderate, although one mutation had been introduced into an amino acid with a high degree of conservation (Asn^204). Changes in ΔG° (ΔΔG°) resulting from all the mutations were mapped on the structure of VhCBP in complex with (GlcNAc)2 as shown in Figure 6B. Degrees of conservation among five members of cluster/subcluster C-IV SBPs (VhCBP, VcCBP, TmCeBP, TmMnBP1, and TmMnBP2) are also represented by coloring dark red (high degree of conservation) to pale red (moderate degree of conservation) to white (low degree of conservation).
# Figure 5 ITC profiles obtained from (GlcNAc)2titration using VhCBP WT and mutants. Thermograms (upper) and binding isotherms with theoretical fits (lower) of the individual titrations are presented. […]
# VhCBP D365A = assay: ITC titration of VhCBP mutant D365A with (GlcNAc)2
# Excerpt: as §1, §2, §3, §4, §5
compound,measurement,setting,value
CC(=O)N[C@H]1[C@H](O[C@H]2[C@H](O)[C@@H](NC(C)=O)C(O)O[C@@H]2CO)O[C@H](CO)[C@@H](O)[C@@H]1O (stereo partly drawn) [(GlcNAc)2],Kd,"VhCBP W363A; ITC, W363A, 20 mM Tris-HCl pH 8.0, 25 °C, mean ± SD",80.2 ± 19.9 µM
same,ΔG°,"VhCBP W363A; ITC, W363A, pH 8.0, 25 °C",-5.6 ± 0.1 kcal/mol
same,ΔH°,"VhCBP W363A; ITC, W363A, pH 8.0, 25 °C",-1.9 ± 1.8 kcal/mol
same,−TΔS°,"VhCBP W363A; ITC, W363A, pH 8.0, 25 °C",-3.7 ± 2.0 kcal/mol
same,ΔΔG°,VhCBP W363A; W363A versus WT,+4.7 ± 0.4 kcal.mol^−1
same,ΔΔG°,VhCBP F411A; F411A versus WT,+1.6 ± 0.3 kcal.mol^−1
same,Kd,"VhCBP F411A; ITC, F411A, 20 mM Tris-HCl pH 8.0, 25 °C, mean ± SD",0.4 ± 0.07 µM
same,ΔG°,"VhCBP F411A; ITC, F411A, pH 8.0, 25 °C",-8.7 ± 0.1 kcal/mol
same,ΔH°,"VhCBP F411A; ITC, F411A, pH 8.0, 25 °C",-3.3 ± 0.1 kcal/mol
same,−TΔS°,"VhCBP F411A; ITC, F411A, pH 8.0, 25 °C",-5.4 ± 0.1 kcal/mol
same,Kd,"VhCBP W513A; ITC, W513A ('half-open'/semiopen state), 20 mM Tris-HCl pH 8.0, 25 °C, mean ± SD",36.8 ± 7.4 µM
same,ΔG°,"VhCBP W513A; ITC, W513A, pH 8.0, 25 °C",-6.1 ± 0.1 kcal/mol
same,ΔH°,"VhCBP W513A; ITC, W513A, pH 8.0, 25 °C",-5.8 ± 0.0 kcal/mol
same,−TΔS°,"VhCBP W513A; ITC, W513A, pH 8.0, 25 °C",-0.3 ± 0.1 kcal/mol
same,lower affinity of semiopen state than the closed state,"VhCBP W513A; W513A (semiopen) versus WT (closed), from Kd",1200
same,ΔΔG°,VhCBP W513A; W513A versus WT,+4.2 ± 0.3 kcal.mol^−1
same,ΔG°,VhCBP WT,-10.3 ± 0.3 kcal/mol
same,ΔH°,VhCBP WT,-3.9 ± 0.1 kcal/mol
same,−TΔS°,VhCBP WT,-6.4 ± 0.2 kcal/mol
same,Kd,VhCBP WT,0.03 ± 0.01 µM
same,Kd,"VhCBP N409A; ITC, N409A, 20 mM Tris-HCl pH 8.0, 25 °C, mean ± SD",0.45 ± 0.1 µM
same,ΔG°,"VhCBP N409A; ITC, N409A, pH 8.0, 25 °C",-8.7 ± 0.1 kcal/mol
same,ΔH°,"VhCBP N409A; ITC, N409A, pH 8.0, 25 °C",-9.6 ± 0.6 kcal/mol
same,−TΔS°,"VhCBP N409A; ITC, N409A, pH 8.0, 25 °C",1.0 ± 0.7 kcal/mol
same,ΔΔG°,VhCBP N409A; N409A versus WT,+1.6 ± 0.2 kcal.mol^−1
same,Kd,"VhCBP S221A; ITC, S221A, 20 mM Tris-HCl pH 8.0, 25 °C, mean ± SD",0.07 ± 0.06 µM
same,ΔG°,"VhCBP S221A; ITC, S221A, pH 8.0, 25 °C",-10.2 ± 1.0 kcal/mol
same,ΔH°,"VhCBP S221A; ITC, S221A, pH 8.0, 25 °C",-5.3 ± 0.7 kcal/mol
same,−TΔS°,"VhCBP S221A; ITC, S221A, pH 8.0, 25 °C",-4.9 ± 1.4 kcal/mol
same,ΔΔG°,VhCBP S221A; S221A versus WT,+0.1 ± 1.0 kcal.mol^−1
same,Kd,"VhCBP N204A; ITC, N204A, 20 mM Tris-HCl pH 8.0, 25 °C, mean ± SD",0.83 ± 0.17 µM
same,ΔG°,"VhCBP N204A; ITC, N204A, pH 8.0, 25 °C",-8.3 ± 0.1 kcal/mol
same,ΔH°,"VhCBP N204A; ITC, N204A, pH 8.0, 25 °C",-0.75 ± 0.05 kcal/mol
same,−TΔS°,"VhCBP N204A; ITC, N204A, pH 8.0, 25 °C",-7.6 ± 0.2 kcal/mol
same,ΔΔG°,VhCBP N204A; N204A versus WT,+2.1 ± 0.3 kcal.mol^−1
same,ΔΔG°,VhCBP E10A; E10A versus WT,+1.9 ± 0.2 kcal.mol^−1
same,Kd,"VhCBP E10A; ITC, E10A, 20 mM Tris-HCl pH 8.0, 25 °C, mean ± SD",0.71 ± 0.07 µM
same,ΔG°,"VhCBP E10A; ITC, E10A, pH 8.0, 25 °C",-8.4 ± 0.1 kcal/mol
same,ΔH°,"VhCBP E10A; ITC, E10A, pH 8.0, 25 °C",-8.8 ± 0.1 kcal/mol
same,−TΔS°,"VhCBP E10A; ITC, E10A, pH 8.0, 25 °C",0.4 ± 0.2 kcal/mol
same,ΔΔG°,VhCBP F437A; F437A versus WT,+4.1 ± 0.3 kcal.mol^−1
same,Kd,"VhCBP F437A; ITC, F437A, 20 mM Tris-HCl pH 8.0, 25 °C, mean ± SD",29.7 ± 0.5 µM
same,ΔG°,"VhCBP F437A; ITC, F437A, pH 8.0, 25 °C",-6.2 ± 0.0 kcal/mol
same,ΔH°,"VhCBP F437A; ITC, F437A, pH 8.0, 25 °C",-11.0 ± 0.4 kcal/mol
same,binding detected by ITC (ND represents no detectable binding),VhCBP W363A/W513A,did not exhibit any clear heat release
same,ΔΔG°,VhCBP D365A; D365A versus WT,+8.6 ± 0.3 kcal.mol^−1
same,Kd,"VhCBP D365A; ITC, D365A, 20 mM Tris-HCl pH 8.0, 25 °C, mean ± SD",65000 µM
same,ΔG°,"VhCBP D365A; ITC, D365A, pH 8.0, 25 °C",-1.6 ± 0.0 kcal/mol
same,ΔH°,"VhCBP D365A; ITC, D365A, pH 8.0, 25 °C",-11.3 ± 0.4 kcal/mol
same,−TΔS°,"VhCBP D365A; ITC, D365A, pH 8.0, 25 °C",9.7 ± 0.4 kcal/mol
CC(=O)N[C@H]1[C@H](O[C@H]2[C@H](O)[C@@H](NC(C)=O)C(O)O[C@@H]2CO)O[C@H](CO)[C@@H](O[C@@H]2O[C@H](CO)[C@@H](O)[C@H](O)[C@H]2NC(C)=O)[C@@H]1O (stereo partly drawn) [(GlcNAc)3],ΔG°,VhCBP WT,-9.7 ± 0.3 kcal/mol
same,ΔH°,VhCBP WT,-4.7 ± 0.1 kcal/mol
same,−TΔS°,VhCBP WT,-5.0 ± 0.3 kcal/mol
same,Kd,VhCBP WT,0.09 ± 0.05 µM
same,fold lower affinity than (GlcNAc)2,VhCBP WT,3 fold
CC(=O)N[C@H]1[C@H](O[C@H]2[C@H](O)[C@@H](NC(C)=O)C(O)O[C@@H]2CO)O[C@H](CO)[C@@H](O[C@@H]2O[C@H](CO)[C@@H](O[C@@H]3O[C@H](CO)[C@@H](O)[C@H](O)[C@H]3NC(C)=O)[C@H](O)[C@H]2NC(C)=O)[C@@H]1O (stereo partly drawn) [(GlcNAc)4],ΔG°,VhCBP WT,-8.8 ± 0.3 kcal/mol
same,ΔH°,VhCBP WT,-4.8 ± 0.6 kcal/mol
same,−TΔS°,VhCBP WT,-4.0 ± 1.0 kcal/mol
same,Kd,VhCBP WT,0.4 ± 0.24 µM
same,fold lower affinity than (GlcNAc)2,VhCBP WT,12 fold
